Laboratory results as given in patent US5696083A, “Personal care composition containing pyrithione and polymyxin” (Olin Corporation, priority 1994, dated 1997).

Legend:
Assay type in all cases: cell-based
[1] = tested on: Pseudomonas fluorescens; experiment: Checkerboard MIC Test in Tryptic Soy Broth; details: Table 4, 28° C., 3 days
Procedure: (§1) Determinations of minimum inhibitory concentrations (MIC's) of the two compounds (pyrithione salts and/or polymyxin sulfate) in a nutrient broth (alone and in mixtures) were conducted to evaluate interactions. Stock solutions of pyrithione salts and/or polymyxin salts were diluted in Tryptic Soy Broth (Difco), and the dilutions were inoculated with an equal volume of bacterial culture (10^6 /ml) or fungal spore suspension (10^5 /ml) in Tryptic Soy Broth and incubated at 28° C. for 3-7 days.
(§2) The interactions of the antimicrobials were determined according to accepted procedures (M. C. Berenbaum [Tables 1 and 2] and P. F. Dougherty "Microdilution Transfer Plate Technique for Determining In Vitro Synergy of Antimicrobial Agents", ANTIMICROBIAL AGENTS AND CHEMOTHERAPY, Vol. 11, No. 2, p. 225-228 (Feb. 1977, American Society for Microbiology) [Tables 3 and 4]). The concentration of each agent in the combination that inhibits the organisms is expressed as a fraction of the concentration that causes the same effect when the same agent is tested alone (i.e., its fractional inhibitory concentration, FIC). If the sum of the FIC's is 1, the combination is additive in its antimicrobial effect; if the sum is <1, the combination is synergistic; and if the sum is >1, the combination is antagonistic.
(§3) ^b Each dilution contained 10^6 bacteria/ml of 10^5 fungi/ml.

[2] = tested on: Proteus mirabilis; experiment: Checkerboard MIC Test in Tryptic Soy Broth; details: Table 4, 28° C., 3 days
Procedure: as §1, §2, §3

[3] = tested on: Trichophyton mentagrophytes; experiment: Checkerboard MIC Test in Tryptic Soy Broth; details: Table 4, 28° C., 5 days
Procedure: as §1, §2, §3

[4] = tested on: Candida albicans; experiment: Checkerboard MIC Test in Tryptic Soy Broth; details: Table 4, 28° C., 5 days
Procedure: as §1, §2, §3

[5] = tested on: Pseudomonas aeruginosa; experiment: Checkerboard MIC Test in Tryptic Soy Broth; details: Table 4, 28° C., 3 days
Procedure: as §1, §2, §3

[6] = tested on: Citrobacter freundii; experiment: MIC in Tryptic Soy Broth, compounds alone and in mixtures; details: Table 2, 28° C., 6 days
Procedure: as §1, §2
(§4) ^a Compounds were serially diluted in Tryptic soy Broth (DIFCO),
as §3
(§5) ^a Stock solutions of ZP in dimethylsulfoxide and PB in sterile water

[7] = tested on: Pseudomonas rubescens; experiment: as above; details: Table 2, 28° C., 6 days
Procedure: as §1, §2, §4, §3, §5

[8] = tested on: Pseudomonas fluorescens; experiment: as above; details: Table 2, 28° C., 6 days
Procedure: as §1, §2, §4, §3, §5

[9] = tested on: Aspergillus niger; experiment: as above; details: Table 2, 28° C., 7 days
Procedure: as §1, §2, §4, §3, §5

[10] = tested on: Proteus mirabilis; experiment: as above; details: Table 2, 28° C., 6 days
Procedure: as §1, §2, §4, §3, §5

[11] = tested on: Penicillin pinophilium; experiment: as above; details: Table 2, 28° C., 7 days
Procedure: as §1, §2, §4, §3, §5

[12] = tested on: Pseudomonas Stutzeri; experiment: as above; details: Table 2, 28° C., 6 days
Procedure: as §1, §2, §4, §3, §5

[13] = tested on: Trichophyton mentagrophytes; experiment: as above; details: Table 2, 28° C., 7 days
Procedure: as §1, §2, §4, §3, §5

[14] = tested on: Gliocladium virens; experiment: as above; details: Table 2, 28° C., 7 days
Procedure: as §1, §2, §4, §3, §5

[15] = tested on: Chaetomium globosium; experiment: as above; details: Table 2, 28° C., 7 days
Procedure: as §1, §2, §4, §3, §5

[16] = tested on: Alcaligens faecalis; experiment: as above; details: Table 2, 28° C., 6 days
Procedure: as §1, §2, §4, §3, §5

[17] = tested on: Fusarium solani; experiment: as above; details: Table 2, 28° C., 7 days
Procedure: as §1, §2, §4, §3, §5

[18] = tested on: Cephalosporium sp.; experiment: as above; details: Table 2, 28° C., 7 days
Procedure: as §1, §2, §4, §3, §5

[19] = tested on: Aureobasidium pullulans; experiment: as above; details: Table 2, 28° C., 7 days
Procedure: as §1, §2, §4, §3, §5

[20] = tested on: Candida albicans; experiment: as above; details: Table 2, 28° C., 7 days
Procedure: as §1, §2, §4, §3, §5

[21] = tested on: Pseudomonas aeruginosa; experiment: as above; details: Table 2, 28° C., 6 days
Procedure: as §1, §2, §4, §3, §5

[22] = tested on: Pseudomonas oleovorans; experiment: as above; details: Table 2, 28° C., 6 days
Procedure: as §1, §2, §4, §3, §5

[23] = tested on: Fusarium sp.; experiment: as above; details: Table 2, 28° C., 7 days
Excerpt: as §4, §3, §5

[24] = alone, checkerboard, PE methanesulfonate, Na+, 14,310 units/mg
[25] = alone, Tryptic Soy Broth, PB sulfate 7730 units/mg
[26] = concentration of the component in ZP+PB mixture, ZP/PB ratio 1/32-1/8
[27] = concentration of the component in ZP+PB mixture, ZP/PB ratio 1/8-1

Substance: zinc pyrithione [ZP]
- Minimum Inhibitory Concentration, Compound Used Alone [1, 24]: 64 ppm
- Minimum Inhibitory Concentration, Mixture Range ([1]; concentration of the component in ZP+PE mixtures, ZP/PE range ≤1/128-4): ≤1-16 ppm
- Minimum Inhibitory Concentration, Compound Used Alone [2, 24]: 8 ppm
- Minimum Inhibitory Concentration, Mixture Range ([2]; concentration of the component in ZP+PE mixtures, ZP/PE range 1/1024): 4 ppm
- Minimum Inhibitory Concentration, Compound Used Alone [3, 24]: 16 ppm
- Minimum Inhibitory Concentration, Mixture Range ([3]; concentration of the component in ZP+PE mixtures, ZP/PE range 1/4-4): 8-16 ppm
- Minimum Inhibitory Concentration, Compound Used Alone [4, 24]: 16 ppm
- Minimum Inhibitory Concentration, Mixture Range ([4]; concentration of the component in ZP+PE mixtures, ZP/PE range 1/2048-1/4): 1-8 ppm
- Minimum Inhibitory Concentration, Compound Used Alone [5, 24]: 128 ppm
- Minimum Inhibitory Concentration, Mixture Range ([5]; concentration of the component in ZP+PE mixtures, ZP/PE range 2-8): 16-32 ppm
- Minimum Inhibitory Concentration, Compound Used Alone [6, 25]: 8.0 ppm
- Minimum Inhibitory Concentration, Mixture ([6]; concentration of the component in ZP+PB mixture, ZP/PB ratio 16-64): 3.3 ppm
- Minimum Inhibitory Concentration, Compound Used Alone [7, 25]: 3.3 ppm
- Minimum Inhibitory Concentration, Mixture ([7]; concentration of the component in ZP+PB mixture, ZP/PB ratio 256): 3.3 ppm
- Minimum Inhibitory Concentration, Compound Used Alone [8, 25]: 106.7 ppm
- Minimum Inhibitory Concentration, Mixture ([8]; concentration of the component in ZP+PB mixture, ZP/PB ratio 8-16): 4.7 ppm
- Minimum Inhibitory Concentration, Compound Used Alone [9, 25]: 32.0 ppm
- Minimum Inhibitory Concentration, Mixture [9, 26]: 16.0 ppm
- Minimum Inhibitory Concentration, Compound Used Alone [10, 25]: 4.0 ppm
- Minimum Inhibitory Concentration, Mixture ([10]; concentration of the component in ZP+PB mixture, ZP/PB ratio 1/32): 2.0 ppm
- Minimum Inhibitory Concentration, Compound Used Alone [11, 25]: 16.0 ppm
- Minimum Inhibitory Concentration, Mixture ([11]; concentration of the component in ZP+PB mixture, ZP/PB ratio 1/8): 4.0 ppm
- Minimum Inhibitory Concentration, Compound Used Alone [12, 25]: 4.0 ppm
- Minimum Inhibitory Concentration, Mixture ([12]; concentration of the component in ZP+PB mixture, ZP/PB ratio 16-128): 4.0 ppm
- Minimum Inhibitory Concentration, Compound Used Alone [13, 25]: 8.0 ppm
- Minimum Inhibitory Concentration, Mixture ([13]; concentration of the component in ZP+PB mixture, ZP/PB ratio 1/4-1/2): 8.0 ppm
- Minimum Inhibitory Concentration, Compound Used Alone [14, 25]: 80.0 ppm
- Minimum Inhibitory Concentration, Mixture ([14]; concentration of the component in ZP+PB mixture, ZP/PB ratio 1-2): 24.0 ppm
- Minimum Inhibitory Concentration, Compound Used Alone [15, 25]: 67.0 ppm
- Minimum Inhibitory Concentration, Mixture [15, 27]: 13.3 ppm
- Minimum Inhibitory Concentration, Compound Used Alone [16, 25]: 10.7 ppm
- Minimum Inhibitory Concentration, Mixture ([16]; concentration of the component in ZP+PB mixture, ZP/PB ratio 8-32): 6.7 ppm
- Minimum Inhibitory Concentration, Compound Used Alone [17, 25]: 64.0 ppm
- Minimum Inhibitory Concentration, Mixture [17, 27]: 13.3 ppm
- Minimum Inhibitory Concentration, Compound Used Alone [18, 25]: 16.0 ppm
- Minimum Inhibitory Concentration, Mixture ([18]; concentration of the component in ZP+PB mixture, ZP/PB ratio 1/16-1/8): 4.0 ppm
- Minimum Inhibitory Concentration, Compound Used Alone [19, 25]: 8.0 ppm
- Minimum Inhibitory Concentration, Mixture ([19]; concentration of the component in ZP+PB mixture, ZP/PB ratio 1/32-1/16): 4.0 ppm
- Minimum Inhibitory Concentration, Compound Used Alone [20, 25]: 8.0 ppm
- Minimum Inhibitory Concentration, Mixture [20, 26]: 4.0 ppm
- Minimum Inhibitory Concentration, Compound Used Alone [21, 25]: 288.0 ppm
- Minimum Inhibitory Concentration, Mixture ([21]; concentration of the component in ZP+PB mixture, ZP/PB ratio 128-256): 112.0 ppm
- Minimum Inhibitory Concentration, Compound Used Alone [22, 25]: 6.7 ppm
- Minimum Inhibitory Concentration, Mixture ([22]; concentration of the component in ZP+PB mixture, ZP/PB ratio 16-32): 4.0 ppm
- Minimum Inhibitory Concentration, Compound Used Alone [23, 25]: 64.0 ppm
- Minimum Inhibitory Concentration, Mixture [23, 27]: 18.7 ppm
